Structures can show the parent of a compound that is named as a salt.
Assays:
rHDAC8 = target: T1, rHDAC8 (Homo sapiens, UniProt Q9BY41); assay: rHDAC8 enzymatic assay (recombinant FLAG-HDAC8); type: biochemical; details: FLAG-HDAC8 from insect cells; 50 μM Ac-RHK(Ac)K(Ac)-AMC, 3 h at 30° C.; read-out: rHDAC8 [pIC50] (converted)
T1 construct: FLAG; made in house; host or cells: baculovirus-infected Sf21 insect cells
T1 sequence (Q9BY41 1-377): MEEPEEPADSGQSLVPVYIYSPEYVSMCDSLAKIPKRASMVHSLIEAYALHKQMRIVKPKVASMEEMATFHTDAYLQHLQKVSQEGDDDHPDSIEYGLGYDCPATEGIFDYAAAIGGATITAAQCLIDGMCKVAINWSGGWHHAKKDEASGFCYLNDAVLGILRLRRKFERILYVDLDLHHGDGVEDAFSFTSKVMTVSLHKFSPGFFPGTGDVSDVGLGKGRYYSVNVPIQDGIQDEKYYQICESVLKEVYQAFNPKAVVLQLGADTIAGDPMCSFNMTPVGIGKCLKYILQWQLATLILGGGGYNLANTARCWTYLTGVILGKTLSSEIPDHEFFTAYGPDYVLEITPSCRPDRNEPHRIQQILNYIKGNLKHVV
Source text: (§1) Human HDAC1 and HDAC6 fused with the FLAG epitope are stably expressed in HEK293 cells while human HDAC3 and HDAC8 fused with the FLAG epitope are overexpressed in baculo-virus infected insect (Sf21) cells. To ensure stability of FLAG-HDAC3 the SMRT protein is co-expressed in the corresponding insect cells. […] FLAG-HDAC3 and FLAG-HDAC8 are also purified by M2-agarose affinity chromatography after mass cultivation of the insect cells and cell lysis.
(§2) The HDAC enzyme activity assay is done as described by Wegener et al. (Chem. & Biol. 10, 61-68, 2003). Briefly 40 μl of a 1:100 dilution (=0.4 μl) nuclear HeLa extract (mixture of class I and II HDACs), 29 μl enzyme buffer (15 mM Tris HCl pH 8.1, 0.25 mM EDTA, 250 mM NaCl, 10% v:v glycerol) and 1 μl test compound are added to a well of a 96 well microtiter plate and reaction started by addition of 3 μl substrate (Ac-NH-GGK(Ac)-AMC; final concentration 25 μM and final volume […]). […] After incubation at room temperature for further 40 min, fluorescence is measured using a Wallac Victor 1420 multilabel counter (Ex 355 nm, Em 460 nm) for quantification of AMC (7-amino-4-methylcoumarin) generated by trypsine cleavage of the deacetylated peptide. […] The corresponding pIC50 values of the compounds for HDAC inhibitory activity are determined from the concentration-effect curves by means of non-linear regression (Graphpad Prism software).
(§3) The HDAC1, HDAC3 and HDAC6 enzymatic assays are done with slight modifications with recombinant FLAG-HDAC1 and FLAG-HDAC6 proteins isolated from HEK293 cell lysates or recombinant FLAG-HDAC3 isolated from insect cells, respectively. The HDAC8 enzymatic assay using recombinant FLAG-HDAC8 isolated from insect cells is done with a different substrate. About 4.5 ng/well FLAG-HDAC1 and 3.1 ng/well FLAG-HDAC6 (dependent on batches and specific activity) are incubated with 6 μM or 10 μM Ac-NH-GGK(Ac)-AMC substrate, respectively, for 3 h at 30° C. About 1.7 ng/well FLAG-HDAC3 is incubated with 6 μM Ac-NH-GGK(Ac)-AMC substrate for 2 h at 30° C., while approximately 130 ng/well FLAG-HDAC8 is incubated with 50 μM Ac-RHK(Ac)K(Ac)-AMC substrate for 3 h at 30° C. Termination of the reaction and all further steps are done as described for HeLa cell nuclear extracts as a source for HDAC enzymatic activity. The corresponding pIC50 values of the compounds for HDAC1, HDAC3, HDAC6 and HDAC8 inhibitory activity are determined from the concentration-effect curves by means of non-linear regression.

rHDAC3 = target: T2, rHDAC3 (Homo sapiens, UniProt O15379); assay: rHDAC3 enzymatic assay (recombinant FLAG-HDAC3); type: biochemical; details: FLAG-HDAC3 from insect cells; 6 μM Ac-NH-GGK(Ac)-AMC, 2 h at 30° C.; read-out: rHDAC3 [pIC50] (converted)
T2 construct: FLAG; made in house; host or cells: baculovirus-infected Sf21 insect cells
T2 sequence (O15379 whole entry): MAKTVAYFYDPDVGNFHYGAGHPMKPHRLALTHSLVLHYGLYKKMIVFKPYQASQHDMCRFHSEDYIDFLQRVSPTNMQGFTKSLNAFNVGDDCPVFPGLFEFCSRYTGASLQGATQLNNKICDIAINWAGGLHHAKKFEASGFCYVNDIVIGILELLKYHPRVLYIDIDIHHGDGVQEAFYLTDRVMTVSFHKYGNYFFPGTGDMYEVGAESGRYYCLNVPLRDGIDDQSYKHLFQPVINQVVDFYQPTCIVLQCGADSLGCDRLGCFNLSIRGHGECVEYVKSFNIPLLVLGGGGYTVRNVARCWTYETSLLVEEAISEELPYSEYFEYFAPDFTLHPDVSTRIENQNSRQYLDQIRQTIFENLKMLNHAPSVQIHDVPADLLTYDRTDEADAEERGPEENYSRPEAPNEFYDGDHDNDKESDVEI
T2 sequence (Q9Y618 whole entry partner): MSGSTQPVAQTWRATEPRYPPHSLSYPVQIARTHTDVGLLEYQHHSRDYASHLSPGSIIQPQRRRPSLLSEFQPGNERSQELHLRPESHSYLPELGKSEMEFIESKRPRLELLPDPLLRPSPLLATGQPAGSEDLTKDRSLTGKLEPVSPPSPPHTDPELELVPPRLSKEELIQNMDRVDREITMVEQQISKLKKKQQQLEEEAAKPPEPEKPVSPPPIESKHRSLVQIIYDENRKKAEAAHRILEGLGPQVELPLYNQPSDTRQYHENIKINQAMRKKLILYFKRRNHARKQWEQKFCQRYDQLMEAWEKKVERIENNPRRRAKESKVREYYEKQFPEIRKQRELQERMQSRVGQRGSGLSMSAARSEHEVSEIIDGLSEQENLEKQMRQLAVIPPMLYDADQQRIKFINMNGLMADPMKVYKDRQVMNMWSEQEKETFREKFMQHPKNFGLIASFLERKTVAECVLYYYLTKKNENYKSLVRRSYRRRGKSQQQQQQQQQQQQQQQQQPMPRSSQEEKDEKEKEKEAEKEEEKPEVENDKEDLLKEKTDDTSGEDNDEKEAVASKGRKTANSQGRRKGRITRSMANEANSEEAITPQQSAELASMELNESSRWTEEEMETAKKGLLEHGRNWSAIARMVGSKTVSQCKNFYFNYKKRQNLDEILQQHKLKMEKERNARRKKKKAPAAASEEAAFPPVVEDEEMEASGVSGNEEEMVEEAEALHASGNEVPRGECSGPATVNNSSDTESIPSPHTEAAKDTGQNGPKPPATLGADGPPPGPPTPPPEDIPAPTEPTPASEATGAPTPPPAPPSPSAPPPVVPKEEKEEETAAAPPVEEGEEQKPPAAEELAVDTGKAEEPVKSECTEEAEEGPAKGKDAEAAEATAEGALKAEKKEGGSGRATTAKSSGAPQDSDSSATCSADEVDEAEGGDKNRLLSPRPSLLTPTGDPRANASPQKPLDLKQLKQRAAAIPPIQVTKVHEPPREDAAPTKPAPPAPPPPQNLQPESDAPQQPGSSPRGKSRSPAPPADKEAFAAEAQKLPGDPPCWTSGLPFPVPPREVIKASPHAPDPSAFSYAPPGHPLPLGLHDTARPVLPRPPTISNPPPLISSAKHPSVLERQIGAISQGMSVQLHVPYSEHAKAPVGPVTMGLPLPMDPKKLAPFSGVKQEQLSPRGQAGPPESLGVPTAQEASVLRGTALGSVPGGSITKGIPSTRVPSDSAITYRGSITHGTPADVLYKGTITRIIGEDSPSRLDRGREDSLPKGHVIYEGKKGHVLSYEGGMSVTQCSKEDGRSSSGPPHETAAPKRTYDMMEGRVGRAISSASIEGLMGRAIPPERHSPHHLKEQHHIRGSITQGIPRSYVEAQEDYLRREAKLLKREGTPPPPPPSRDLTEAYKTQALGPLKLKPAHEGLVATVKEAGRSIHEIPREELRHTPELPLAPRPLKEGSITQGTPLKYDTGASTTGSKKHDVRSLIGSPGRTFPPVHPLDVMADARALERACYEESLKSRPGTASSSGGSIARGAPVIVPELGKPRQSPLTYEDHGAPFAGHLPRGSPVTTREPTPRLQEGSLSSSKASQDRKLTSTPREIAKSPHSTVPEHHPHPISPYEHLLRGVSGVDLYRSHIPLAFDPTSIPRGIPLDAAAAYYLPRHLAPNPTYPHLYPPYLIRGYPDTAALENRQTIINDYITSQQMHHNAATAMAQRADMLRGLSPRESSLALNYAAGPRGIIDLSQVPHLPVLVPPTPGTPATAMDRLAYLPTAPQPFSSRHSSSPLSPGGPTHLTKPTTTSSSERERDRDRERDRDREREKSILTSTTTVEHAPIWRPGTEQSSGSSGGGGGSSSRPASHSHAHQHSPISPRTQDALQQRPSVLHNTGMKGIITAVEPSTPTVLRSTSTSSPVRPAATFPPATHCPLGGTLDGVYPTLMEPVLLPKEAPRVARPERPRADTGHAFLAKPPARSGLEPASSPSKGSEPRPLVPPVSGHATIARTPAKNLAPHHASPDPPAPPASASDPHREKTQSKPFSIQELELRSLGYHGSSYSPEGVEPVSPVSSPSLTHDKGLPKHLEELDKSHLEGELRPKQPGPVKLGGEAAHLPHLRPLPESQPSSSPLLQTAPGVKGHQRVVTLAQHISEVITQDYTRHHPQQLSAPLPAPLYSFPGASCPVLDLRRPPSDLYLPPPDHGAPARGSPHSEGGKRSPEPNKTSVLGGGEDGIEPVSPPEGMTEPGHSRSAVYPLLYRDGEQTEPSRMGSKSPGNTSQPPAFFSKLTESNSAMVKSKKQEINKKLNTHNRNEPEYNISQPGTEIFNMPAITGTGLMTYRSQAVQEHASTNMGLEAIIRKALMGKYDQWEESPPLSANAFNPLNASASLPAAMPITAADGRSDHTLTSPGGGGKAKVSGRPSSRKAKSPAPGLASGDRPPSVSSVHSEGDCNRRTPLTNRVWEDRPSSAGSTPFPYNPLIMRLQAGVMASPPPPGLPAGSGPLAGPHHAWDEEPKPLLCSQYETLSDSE
Source text: as §1, §2, §3

[1] = Cellular cytotoxicity assay (Alamar Blue/Resazurin), A549; type: cell-based; details: human, A549 cells; A549, 72 hours incubation, Resazurin; read-out: A549 Cytotoxicity [pIC50] (converted)
Method: (§4) The anti-proliferative activity of the compounds as described herein, is evaluated with various solid and hematological cancer cell lines using the Alamar Blue (Resazurin) cell viability assay (O'Brien et al, Eur J Biochem 267, 5421-5426, 2000). Resazurin is reduced to the fluorescent resorufin by cellular dehydrogenase activity, correlating with viable, proliferating cells. Test compounds are dissolved as 20 mM solutions in dimethylsulfoxide (DMSO) and subsequently diluted in semi-logarithmic steps. The cancer cell lines are seeded into 96 well flat bottom plates at respective cell densities in a volume of 200 μl per well to allow continuous proliferation during the experiment. 24 hours after seeding 1 μl each of the compound dilutions is added into each well of the 96 well plate. Wells containing untreated control cells are filled with 200 μl DMEM medium containing 0.5% v:v DMSO. The cells are then incubated with the substances for 72 hours at 37° C. in a humidified atmosphere containing 5% carbon dioxide. To determine the viability of the cells, 20 μl of a Resazurin solution (Sigma; 90 mg/l) are added. After 4 hours incubation at 37° C. the fluorescence is measured at an extinction of 544 nm and an emission of 590 nm. For the calculation of the cell viability the emission value from untreated cells is set as 100% viability and the emission rates of treated cells are set in relation to the values of untreated cells. Viabilities are expressed as % values. The corresponding pIC50 values of the compounds for cytotoxic activity are determined from the concentration-effect curves by means of non-linear regression.

rHDAC1 = target: T3, rHDAC1 (Homo sapiens, UniProt Q13547); assay: rHDAC1 enzymatic assay (recombinant FLAG-HDAC1); type: biochemical; details: FLAG-HDAC1 from HEK293; 6 μM Ac-NH-GGK(Ac)-AMC, 3 h at 30° C.; read-out: rHDAC1 [pIC50] (converted)
T3 construct: FLAG; made in house
T3 sequence (Q13547 whole entry): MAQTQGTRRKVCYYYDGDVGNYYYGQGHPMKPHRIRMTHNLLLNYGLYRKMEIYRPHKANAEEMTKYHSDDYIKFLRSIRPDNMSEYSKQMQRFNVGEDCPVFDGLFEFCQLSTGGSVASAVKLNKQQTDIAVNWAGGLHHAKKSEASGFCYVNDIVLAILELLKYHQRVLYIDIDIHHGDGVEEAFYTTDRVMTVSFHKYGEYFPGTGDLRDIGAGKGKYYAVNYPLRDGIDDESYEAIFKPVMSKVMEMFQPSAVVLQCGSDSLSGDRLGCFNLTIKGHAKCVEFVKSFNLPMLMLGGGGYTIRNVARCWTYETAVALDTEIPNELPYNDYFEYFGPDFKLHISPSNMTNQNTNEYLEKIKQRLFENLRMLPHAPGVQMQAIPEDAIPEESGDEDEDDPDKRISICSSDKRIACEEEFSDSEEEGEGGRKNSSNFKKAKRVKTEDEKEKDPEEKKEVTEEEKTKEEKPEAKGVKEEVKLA
Source text: as §1, §2, §3

[2] = Cellular cytotoxicity assay (Alamar Blue/Resazurin), HeLa; type: cell-based; details: human, HeLa cells, 72 hours incubation, Resazurin, read-out: HeLa Cytotoxicity [pIC50] (converted)
Method: as §4

Row | Structure (SMILES) | IC50 (rHDAC8) | IC50 (rHDAC3) | IC50 (rHDAC1) | IC50 at 72 h [1] | IC50 at 72 h [2]
1 | Cc1ccc(C(=O)N2CCc3ccc(C(=O)NO)cc3C2)cc1 [Example 23, N-Hydroxy-2-(4-methylbenzoyl)-1,2,3,4-tetrahydroisoquinoline-7-carboxamide] | 0.01 to 1 µM | 10 to 100 µM | 0.1 to 10 µM | 1 to 100 µM | 1 to 100 µM
2 | O=C(NO)c1ccc2c(c1)CN(C(=O)NCCc1ccccc1)CC2 [Example 22, N7-Hydroxy-N2-(2-phenylethyl)-3,4-dihydroisoquinoline-2,7(1H)-dicarboxamide] | 0.01 to 1 µM | 1 to 10 µM | 0.1 to 10 µM | 1 to 100 µM | 1 to 100 µM
3 | O=C(NO)c1ccc2c(c1)CN(C(=O)Cc1c[nH]c3ccccc13)CC2 [Example 18, N-Hydroxy-2-(1H-indol-3-ylacetyl)-1,2,3,4-tetrahydroisoquinoline-7-carboxamide] | 0.01 to 1 µM | 1 to 10 µM | 0.1 to 10 µM | 1 to 100 µM | 1 to 100 µM
4 | CC#CC(=O)N1CCc2ccc(C(=O)NO)cc2C1 [Example 17, 2-But-2-ynoyl-N-hydroxy-1,2,3,4-tetrahydroisoquinoline-7-carboxamide] | 0.01 to 1 µM | 10 to 100 µM | 0.1 to 10 µM | > 100 µM | 1 to 100 µM
5 | O=C(NO)c1ccc2c(c1)CN(C(=O)Cc1ccccn1)CC2 [Example 21, N-Hydroxy-2-(pyridin-2-ylacetyl)-1,2,3,4-tetrahydroisoquinoline-7-carboxamide hydrochloride] | 0.01 to 1 µM | 10 to 100 µM | 0.1 to 10 µM | > 100 µM | 1 to 100 µM
6 | CC(=O)N1CCc2cc(C(=O)NO)ccc2C1 [Example 12, 2-Acetyl-N-hydroxy-1,2,3,4-tetrahydroisoquinoline-6-carboxamide] | 1 to 10 µM | 10 to 100 µM | 10 to 100 µM | > 100 µM | > 100 µM
7 | COCCCOC(=O)N1CCc2cc(C(=O)NO)ccc2C1 [Example 6, 3-Methoxypropyl-6-(hydroxycarbamoyl)-3,4-dihydroisoquinoline-2(1H)-carboxylate] | 1 to 10 µM | 10 to 100 µM | 10 to 100 µM | > 100 µM | > 100 µM
8 | CN(C)CCCC(=O)N1CCc2cc(C(=O)NO)ccc2C1 [Example 9, 2-[4-(Dimethylamino)butanoyl]-N-hydroxy-1,2,3,4-tetrahydroisoquinoline-6-carboxamide hydrochloride] | 1 to 10 µM | 10 to 100 µM | 0.1 to 10 µM | 1 to 100 µM | 1 to 100 µM
9 | O=C(NO)c1ccc2c(c1)CCN(C(=O)C1CCC1)C2 [Example 3, 2-(Cyclobutylcarbonyl)-N-hydroxy-1,2,3,4-tetrahydroisoquinoline-6-carboxamide] | 1 to 10 µM | 10 to 100 µM | 0.1 to 10 µM | > 100 µM | 1 to 100 µM

Now from value to molecule, other results behind:

Row | IC50 (rHDAC8) | IC50 (rHDAC3) | IC50 (rHDAC1) | Structure (SMILES) | IC50 at 72 h [1] | IC50 at 72 h [2]
10 | 0.01 to 1 µM | 10 to 100 µM | 0.1 to 10 µM | O=C(NO)c1ccc2c(c1)CN(C(=O)C1CCOC1)CC2 (stereo not shown) [Example 20, N-Hydroxy-2-(tetrahydrofuran-3-ylcarbonyl)-1,2,3,4-tetrahydroisoquinoline-7-carboxamide] | > 100 µM | > 100 µM
11 | 1 to 10 µM | 10 to 100 µM | 0.1 to 10 µM | COCCCNC(=O)N1CCc2cc(C(=O)NO)ccc2C1 [Example 5, N6-Hydroxy-N2-(3-methoxypropyl)-3,4-dihydroisoquinoline-2,6(1H)-dicarboxamide] | > 100 µM | > 100 µM
12 | 1 to 10 µM | 10 to 100 µM | 10 to 100 µM | Cc1nccn1CC(=O)N1CCc2cc(C(=O)NO)ccc2C1 [Example 10, N-Hydroxy-2-[(2-methyl-1H-imidazol-1-yl)acetyl]-1,2,3,4-tetrahydroisoquinoline-6-carboxamide hydrochloride] | > 100 µM | > 100 µM
13 | 1 to 10 µM | 10 to 100 µM | 10 to 100 µM | O=C(NO)c1ccc2c(c1)CCN(C(=O)CCc1cccnc1)C2 [Example 7, N-Hydroxy-2-(3-pyridin-3-ylpropanoyl)-1,2,3,4-tetrahydroisoquinoline-6-carboxamide hydrochloride] | > 100 µM | > 100 µM
14 | 1 to 10 µM | 10 to 100 µM | 10 to 100 µM | O=C(NO)c1ccc2c(c1)CCN(C(=O)Cc1cccnc1)C2 [Example 8, N-Hydroxy-2-(pyridin-3-ylacetyl)-1,2,3,4-tetrahydroisoquinoline-6-carboxamide hydrochloride] | > 100 µM | > 100 µM
15 | 1 to 10 µM | 10 to 100 µM | 0.1 to 10 µM | CNC(=O)N1CCc2cc(C(=O)NO)ccc2C1 [Example 4, N6-Hydroxy-N2-methyl-3,4-dihydroisoquinoline-2,6(1H)-dicarboxamide] | > 100 µM | > 100 µM
16 | 1 to 10 µM | 1 to 10 µM | 0.1 to 10 µM | COc1ccc2[nH]c(C(=O)N3CCc4cc(C(=O)NO)ccc4C3)cc2c1 [Example 15, N-Hydroxy-2-[(5-methoxy-1H-indol-2-yl)carbonyl]-1,2,3,4-tetrahydroisoquinoline-6-carboxamide] | 1 to 100 µM | 1 to 100 µM
17 | 0.01 to 1 µM | 1 to 10 µM | 0.1 to 10 µM | COc1ccc2[nH]c(C(=O)N3CCc4ccc(C(=O)NO)cc4C3)cc2c1 [Example 24, N-Hydroxy-2-[(5-methoxy-1H-indol-2-yl)carbonyl]-1,2,3,4-tetrahydroisoquinoline-7-carboxamide] | 1 to 100 µM | 1 to 100 µM

Reference: patent US8575193B2, “N-substituted tetrahydroisoquinoline/isoindoline hydroxamic acid compounds” (4SC AG, priority 2008, dated 2013)
